Measured values as given in patent US20250353891A1 (MEDIMMUNE LIMITED, priority 2022, published 2025).
Starred links: 1 amine or outer side, 2 acyl side, 3 side chain; linkers in the order of their positions; H or OH if unused. Non-standard residues stand in square brackets, D forms with d. Residues, ends and D or L forms follow the SMILES beside them. Groups on a side chain read outwards from the residue. *: point of attachment. C20 diacid = O=C(O)CCCCCCCCCCCCCCCCCCC(=O)*; C18 diacid = O=C(O)CCCCCCCCCCCCCCCCC(=O)*; γGlu = O=C(O)[C@H](CCC(=O)[*:2])N[*:1]; αMeF = C[C@](N)(Cc1ccccc1)C(=O)O; AEEA = NCCOCCOCC(=O)O; Aib = CC(C)(N)C(=O)O

What was measured:
[1] = target: human GLP-1 receptor (hGLP-1R) (Homo sapiens, UniProt P43220); assay: cAMP production (HTRF) in CHO cells expressing hGLP-1R; format: cell-based; parameters: expressed in transfected cells; conditions: for % Relative Potency Ratio: % GLP-1R activity relative to GLP-1 / % GlucR activity relative to glucagon; for EC50: cAMP, CHO cells, 0.1% BSA, geometric mean, read-out: hGLP-1R EC50
Chain of human GLP-1 receptor (hGLP-1R) (P43220 24-463): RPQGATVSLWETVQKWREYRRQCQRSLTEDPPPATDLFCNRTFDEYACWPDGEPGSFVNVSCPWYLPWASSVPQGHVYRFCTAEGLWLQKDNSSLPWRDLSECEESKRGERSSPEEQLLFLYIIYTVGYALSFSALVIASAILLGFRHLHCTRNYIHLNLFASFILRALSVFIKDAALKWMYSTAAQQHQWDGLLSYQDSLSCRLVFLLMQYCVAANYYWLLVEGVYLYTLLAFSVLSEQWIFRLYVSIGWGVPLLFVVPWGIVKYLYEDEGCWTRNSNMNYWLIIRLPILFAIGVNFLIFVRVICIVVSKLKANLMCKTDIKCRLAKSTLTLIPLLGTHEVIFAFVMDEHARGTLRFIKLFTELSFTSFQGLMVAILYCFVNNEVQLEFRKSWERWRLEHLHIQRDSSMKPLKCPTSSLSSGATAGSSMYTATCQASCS
Method in brief: (§1)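 Cells were resuspended in assay buffer at batch-optimized density, typically 1×10^5 cells/mL for hGLP-1R and 2×10^5 cells/mL for hGCGR. After 30 min incubation at room temperature with compound, cAMP was measured by two-step HTRF. EC50 values came from 4-parameter logistic fits of % Delta F.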

[2] = target: human glucagon receptor (hGCGR) (Homo sapiens, UniProt P47871); assay: cAMP production (HTRF) in CHO cells expressing hGCGR; format: cell-based; parameters: expressed in transfected cells; conditions: cAMP, CHO cells, 0.1% BSA, geometric mean; read-out: hGluc-R EC50
Chain of human glucagon receptor (hGCGR) (P47871 26-477): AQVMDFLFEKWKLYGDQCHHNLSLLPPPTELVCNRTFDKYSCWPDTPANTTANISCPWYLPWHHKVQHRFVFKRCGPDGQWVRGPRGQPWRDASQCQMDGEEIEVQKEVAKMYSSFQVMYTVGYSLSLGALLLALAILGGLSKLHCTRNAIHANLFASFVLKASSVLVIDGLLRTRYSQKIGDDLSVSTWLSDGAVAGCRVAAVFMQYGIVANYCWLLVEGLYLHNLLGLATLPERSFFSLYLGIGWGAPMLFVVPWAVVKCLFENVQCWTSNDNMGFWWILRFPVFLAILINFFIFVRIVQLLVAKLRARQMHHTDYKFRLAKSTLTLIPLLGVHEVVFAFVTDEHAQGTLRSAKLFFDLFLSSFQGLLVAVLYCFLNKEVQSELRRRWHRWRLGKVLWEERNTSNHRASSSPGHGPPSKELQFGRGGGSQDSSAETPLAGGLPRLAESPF
Method in brief: as §1

Row | SMILES | % Relative Potency Ratio [1] | EC50 [1] | EC50 [2]
1 | CC[C@H](C)[C@H](NC(=O)[C@H](Cc1c[nH]c2ccccc12)NC(=O)[C@H](CCCCNC(=O)COCCOCCNC(=O)COCCOCCNC(=O)CC[C@H](NC(=O)CC[C@H](NC(=O)CCCCCCCCCCCCCCCCCCC(=O)O)C(=O)O)C(=O)O)NC(=O)[C@@H](NC(=O)[C@](C)(Cc1ccccc1)NC(=O)[C@H](CC(=O)O)NC(=O)[C@H](CCC(N)=O)NC(=O)[C@H](C)NC(=O)[C@H](C)NC(=O)[C@H](CCCNC(=N)N)NC(=O)[C@H](CO)NC(=O)[C@H](CC(=O)O)NC(=O)[C@H](CC(C)C)NC(=O)[C@](C)(Cc1ccccc1)NC(=O)[C@H](CCCCN)NC(=O)[C@H](CO)NC(=O)[C@@H](NC(=O)[C@H](CC(=O)O)NC(=O)[C@H](CO)NC(=O)[C@@H](NC(=O)[C@](C)(Cc1ccccc1)NC(=O)[C@H](CO)NC(=O)CNC(=O)[C@H](Cc1c[nH]cn1)NC(=O)C(C)(C)NC(=O)[C@@H](N)Cc1c[nH]cn1)[C@@H](C)O)C(C)C)C(C)C)C(=O)N[C@@H](C)C(=O)N[C@@H](CC(N)=O)C(=O)N[C@H](C(N)=O)[C@@H](C)O [Peptide 374] (H-H[Aib]HGS[αMeF]TSDVSK[αMeF]LDSRAAQD[αMeF]VK([AEEA-AEEA-γGlu-γGlu-C20 diacid])WIANT-NH2; N-terminus assumed) | 1.2 | 0.434 nM | 0.26 nM
2 | CC[C@H](C)[C@H](NC(=O)[C@H](Cc1c[nH]c2ccccc12)NC(=O)[C@H](CCCCNC(=O)COCCOCCNC(=O)COCCOCCNC(=O)CC[C@H](NC(=O)CC[C@H](NC(=O)CCCCCCCCCCCCCCCCCCC(=O)O)C(=O)O)C(=O)O)NC(=O)[C@@H](NC(=O)[C@H](Cc1ccccc1)NC(=O)[C@H](CC(=O)O)NC(=O)[C@H](CCC(N)=O)NC(=O)[C@H](C)NC(=O)[C@H](C)NC(=O)[C@H](CCCNC(=N)N)NC(=O)[C@H](CO)NC(=O)[C@H](CC(=O)O)NC(=O)[C@H](CC(C)C)NC(=O)[C@](C)(Cc1ccccc1)NC(=O)[C@H](CCCCN)NC(=O)[C@H](CO)NC(=O)[C@@H](NC(=O)[C@H](CC(=O)O)NC(=O)[C@H](CO)NC(=O)[C@@H](NC(=O)[C@](C)(Cc1ccccc1)NC(=O)[C@H](CO)NC(=O)CNC(=O)[C@H](Cc1c[nH]cn1)NC(=O)C(C)(C)NC(=O)[C@@H](N)Cc1c[nH]cn1)[C@@H](C)O)C(C)C)C(C)C)C(=O)N[C@@H](C)C(=O)N[C@@H](CC(N)=O)C(=O)N[C@H](C(N)=O)[C@@H](C)O [Peptide 377] (H-H[Aib]HGS[αMeF]TSDVSK[αMeF]LDSRAAQDFVK([AEEA-AEEA-γGlu-γGlu-C20 diacid])WIANT-NH2; N-terminus assumed) | 2.5 | 0.15 nM | 0.19 nM
3 | CC[C@H](C)[C@H](NC(=O)[C@H](CO)NC(=O)[C@H](CCCCNC(=O)COCCOCCNC(=O)COCCOCCNC(=O)CC[C@H](NC(=O)CC[C@H](NC(=O)CCCCCCCCCCCCCCCCC(=O)O)C(=O)O)C(=O)O)NC(=O)[C@@H](NC(=O)[C@](C)(Cc1ccccc1)NC(=O)[C@H](CC(=O)O)NC(=O)[C@H](CCC(N)=O)NC(=O)[C@H](C)NC(=O)[C@H](C)NC(=O)[C@H](CCCNC(=N)N)NC(=O)[C@H](CO)NC(=O)[C@H](CC(=O)O)NC(=O)[C@H](CC(C)C)NC(=O)[C@](C)(Cc1ccccc1)NC(=O)[C@H](CCCCN)NC(=O)[C@H](CO)NC(=O)[C@@H](NC(=O)[C@H](CC(=O)O)NC(=O)[C@H](CO)NC(=O)[C@@H](NC(=O)[C@](C)(Cc1ccccc1)NC(=O)[C@H](CO)NC(=O)CNC(=O)[C@H](Cc1c[nH]cn1)NC(=O)C(C)(C)NC(=O)[C@@H](N)Cc1c[nH]cn1)[C@@H](C)O)C(C)C)C(C)C)C(=O)N[C@@H](C)C(=O)N[C@@H](CC(N)=O)C(=O)N[C@H](C(N)=O)[C@@H](C)O [Peptide 378] (H-H[Aib]HGS[αMeF]TSDVSK[αMeF]LDSRAAQD[αMeF]VK([AEEA-AEEA-γGlu-γGlu-C18 diacid])SIANT-NH2; N-terminus assumed) | 2.0 | 0.159 nM | 0.158 nM

Second part, the compound after the results:

Row | % Relative Potency Ratio [1] | EC50 [1] | EC50 [2] | SMILES
4 | 2.4 | 0.0718 nM | 0.0857 nM | CC[C@H](C)[C@H](NC(=O)[C@H](CO)NC(=O)[C@H](CCCCNC(=O)COCCOCCNC(=O)COCCOCCNC(=O)CC[C@H](NC(=O)CCCCCCCCCCCCCCCCC(=O)O)C(=O)O)NC(=O)[C@@H](NC(=O)[C@](C)(Cc1ccccc1)NC(=O)[C@H](CC(=O)O)NC(=O)[C@H](CCC(N)=O)NC(=O)[C@H](C)NC(=O)[C@H](C)NC(=O)[C@H](CCCNC(=N)N)NC(=O)[C@H](CO)NC(=O)[C@H](CC(=O)O)NC(=O)[C@H](CC(C)C)NC(=O)[C@](C)(Cc1ccccc1)NC(=O)[C@H](CCCCN)NC(=O)[C@H](CO)NC(=O)[C@@H](NC(=O)[C@H](CC(=O)O)NC(=O)[C@H](CO)NC(=O)[C@@H](NC(=O)[C@](C)(Cc1ccccc1)NC(=O)[C@H](CO)NC(=O)CNC(=O)[C@H](Cc1c[nH]cn1)NC(=O)C(C)(C)NC(=O)[C@@H](N)Cc1c[nH]cn1)[C@@H](C)O)C(C)C)C(C)C)C(=O)N[C@@H](C)C(=O)N[C@@H](CC(N)=O)C(=O)N[C@H](C(N)=O)[C@@H](C)O [Peptide 379] (H-H[Aib]HGS[αMeF]TSDVSK[αMeF]LDSRAAQD[αMeF]VK([AEEA-AEEA-γGlu-C18 diacid])SIANT-NH2)
5 | 14.9 | 0.174 nM | 1.31 nM | CC[C@H](C)[C@H](NC(=O)[C@H](CO)NC(=O)[C@H](CCCCNC(=O)COCCOCCNC(=O)COCCOCCNC(=O)CC[C@H](NC(=O)CC[C@H](NC(=O)CCCCCCCCCCCCCCCCC(=O)O)C(=O)O)C(=O)O)NC(=O)[C@@H](NC(=O)[C@H](Cc1ccccc1)NC(=O)[C@H](CC(=O)O)NC(=O)[C@H](CCC(N)=O)NC(=O)[C@H](C)NC(=O)[C@H](C)NC(=O)[C@H](CCCNC(=N)N)NC(=O)[C@H](CO)NC(=O)[C@H](CC(=O)O)NC(=O)[C@H](CC(C)C)NC(=O)[C@](C)(Cc1ccccc1)NC(=O)[C@H](CCCCN)NC(=O)[C@H](CO)NC(=O)[C@@H](NC(=O)[C@H](CC(=O)O)NC(=O)[C@H](CO)NC(=O)[C@@H](NC(=O)[C@](C)(Cc1ccccc1)NC(=O)[C@H](CO)NC(=O)CNC(=O)[C@H](Cc1c[nH]cn1)NC(=O)C(C)(C)NC(=O)[C@@H](N)Cc1c[nH]cn1)[C@@H](C)O)C(C)C)C(C)C)C(=O)N[C@@H](C)C(=O)N[C@@H](CC(N)=O)C(=O)N[C@H](C(=O)NCC(=O)NCC(N)=O)[C@@H](C)O [Peptide 381] (H-H[Aib]HGS[αMeF]TSDVSK[αMeF]LDSRAAQDFVK([AEEA-AEEA-γGlu-γGlu-C18 diacid])SIANTGG-NH2; N-terminus assumed)
6 | 11.6 | 0.056 nM | 0.329 nM | CC[C@H](C)[C@H](NC(=O)[C@H](CO)NC(=O)[C@H](CCCCNC(=O)COCCOCCNC(=O)COCCOCCNC(=O)CC[C@H](NC(=O)CC[C@H](NC(=O)CCCCCCCCCCCCCCCCC(=O)O)C(=O)O)C(=O)O)NC(=O)[C@@H](NC(=O)[C@H](Cc1ccccc1)NC(=O)[C@H](CC(=O)O)NC(=O)[C@H](CCC(N)=O)NC(=O)[C@H](C)NC(=O)C(C)(C)NC(=O)[C@H](CCCNC(=N)N)NC(=O)[C@H](CO)NC(=O)[C@H](CC(=O)O)NC(=O)[C@H](CC(C)C)NC(=O)[C@](C)(Cc1ccccc1)NC(=O)[C@H](CCCCN)NC(=O)[C@H](CO)NC(=O)[C@@H](NC(=O)[C@H](CC(=O)O)NC(=O)[C@H](CO)NC(=O)[C@@H](NC(=O)[C@](C)(Cc1ccccc1)NC(=O)[C@H](CO)NC(=O)CNC(=O)[C@H](Cc1c[nH]cn1)NC(=O)C(C)(C)NC(=O)[C@@H](N)Cc1c[nH]cn1)[C@@H](C)O)C(C)C)C(C)C)C(=O)N[C@@H](C)C(=O)N[C@@H](CC(N)=O)C(=O)N[C@H](C(=O)NCC(=O)NCC(N)=O)[C@@H](C)O [Peptide 382, H(Aib)HGS(αMePhe)TSDVSK(αMePhe)LDSR(Aib)AQDFVK(O2OC-O2OC-γE-γE-C18diacid)24SIANTGG-amide] (H-H[Aib]HGS[αMeF]TSDVSK[αMeF]LDSR[Aib]AQDFVK([AEEA-AEEA-γGlu-γGlu-C18 diacid])SIANTGG-NH2; N-terminus assumed)
7 | 2.3 | 0.197 nM | 0.232 nM | CC[C@H](C)[C@H](NC(=O)C(C)(C)NC(=O)[C@H](CCCCNC(=O)COCCOCCNC(=O)COCCOCCNC(=O)CC[C@H](NC(=O)CCCCCCCCCCCCCCCCC(=O)O)C(=O)O)NC(=O)[C@@H](NC(=O)[C@](C)(Cc1ccccc1)NC(=O)[C@H](CC(=O)O)NC(=O)[C@H](CCC(N)=O)NC(=O)[C@H](C)NC(=O)[C@H](C)NC(=O)[C@H](CCC(N)=O)NC(=O)[C@H](CO)NC(=O)[C@H](CC(=O)O)NC(=O)[C@H](CC(C)C)NC(=O)[C@](C)(Cc1ccccc1)NC(=O)[C@H](CCCCN)NC(=O)[C@H](CO)NC(=O)[C@@H](NC(=O)[C@H](CC(=O)O)NC(=O)[C@H](CO)NC(=O)[C@@H](NC(=O)[C@](C)(Cc1ccccc1)NC(=O)[C@H](CO)NC(=O)CNC(=O)[C@H](Cc1c[nH]cn1)NC(=O)C(C)(C)NC(=O)[C@@H](N)Cc1c[nH]cn1)[C@@H](C)O)C(C)C)C(C)C)C(=O)N[C@@H](C)C(=O)N[C@@H](CC(N)=O)C(=O)N[C@H](C(N)=O)[C@@H](C)O [Peptide 383] (H-H[Aib]HGS[αMeF]TSDVSK[αMeF]LDSQAAQD[αMeF]VK([AEEA-AEEA-γGlu-C18 diacid])[Aib]IANT-NH2; N-terminus assumed)
